From patent US20020192253A1, “Peeling composition” (priority 1999, published 2002)
Structures can show the parent of a compound that is named as a salt.

Test system: skin
Experiment: Photodynamic peeling: ointment applied to facial skin, then 635 nm excimer dye laser irradiation
Details: for time at which peeling was completed after the operation: 635 nm
[1] = Example 1: 10 g of 20% ointment, left half of face, 4 hours, 5 J/cm^2 for 30 minutes
[2] = Example 2: 5 g of 20% ointment, right cheek, 12 hours, 5 J/cm^2 for 15 minutes

day from which edematous erythema gradually disappeared [1]: 3 days | day from which edematous erythema gradually disappeared [2]: 3 days
SMILES: NCC(=O)CCC(=O)O [5-ALA hydrochloride, 5-aminolevulinic acid]
condition of treated part in follow-up survey (Example 1: 6 months after the treatment): still remained in favorable conditions | skin reaction at the affected part after irradiation [1]: edematous erythema was formed at the affected part | time at which peeling was completed after the operation (Example 1: person, 10 g of 20% by weight ointment on left half of face, 4 hours shaded, 5 J/cm^2 for 30 minutes): 3 weeks | skin tension, wrinkles, pigmentation, acne spots compared with the untreated right part of the face (Example 1: treated left versus right part of face): obviously relieved | skin reaction at the affected part after irradiation [2]: edematous erythema was formed at the affected part | condition of treated part in follow-up survey (Example 2: 6 months after the treatment): still remained in favorable conditions | time at which peeling was completed after the operation (Example 2: person, 5 g of 20% by weight ointment on right cheek (6 cm×6 cm), 12 hours shaded, 5 J/cm^2 for 15 minutes): 6 days | skin tension, wrinkles, pigmentation, acne spots compared with the corresponding part in the left cheek (Example 2: treated right cheek versus left cheek): obviously relieved
